Laboratory results from patent US20250145665A1, “MACROCYCLIC PEPTIDES USEFUL AS MODULATORS OF TNF ALPHA” (Bristol-Myers Squibb Company, priority 2023, published 2025).
Where two headings read alike, the source gives them in different places. Starred links: 1 amine or outer side, 2 acyl side, 3 side chain; linkers in the order of their positions; H or OH if unused. Positions of bridges follow the written chain, without caps; N, C: chain ends. Non-standard residues stand in square brackets, D forms with d. Residues, ends and D or L forms follow the SMILES beside them. *: point of attachment. Bip(4'-(3-HOOC-benzamido)) = N[C@@H](Cc1ccc(-c2ccc(NC(=O)c3cccc(C(=O)O)c3)cc2)cc1)C(=O)O; Bip(4'-NHBz) = N[C@@H](Cc1ccc(-c2ccc(NC(=O)c3ccccc3)cc2)cc1)C(=O)O; Bip(4'-NH) = O=C([C@H](Cc1ccc(-c2ccc(N[*:3])cc2)cc1)N[*:1])[*:2]; Indazole3carbonyl(1-CH2COOH) = O=C(O)Cn1nc(C(=O)*)c2ccccc21; Bip(4'-COOH) = N[C@@H](Cc1ccc(-c2ccc(C(=O)O)cc2)cc1)C(=O)O; X63 = N=C(NCCC[C@@H](N[*:1])C(=O)[*:2])NCCc1cccc(O)c1; X51 = N=C(NCCC[C@@H](N[*:1])C(=O)[*:2])NCCc1ccccc1; Ala(morpholin-4-yl) = N[C@@H](CN1CCOCC1)C(=O)O; Benzoyl(3-OCH2COOH) = O=C(O)COc1cccc(C(=O)*)c1; Phe(3-CONH2) = NC(=O)c1cccc(C[C@H](N)C(=O)O)c1; Bip = N[C@@H](Cc1ccc(-c2ccccc2)cc1)C(=O)O; Tiq1c(1S) = O=C(O)[C@H]1NCCc2ccccc21; 2Pal = N[C@@H](Cc1ccccn1)C(=O)O; Tic = O=C(O)[C@@H]1Cc2ccccc2CN1; Cha = N[C@@H](CC1CCCCC1)C(=O)O; Tle = CC(C)(C)[C@H](N)C(=O)O; Sar = CNCC(=O)O

Biological target: TNFα (Homo sapiens, UniProt P01375)
Sequence (P01375 77-233 limits assumed): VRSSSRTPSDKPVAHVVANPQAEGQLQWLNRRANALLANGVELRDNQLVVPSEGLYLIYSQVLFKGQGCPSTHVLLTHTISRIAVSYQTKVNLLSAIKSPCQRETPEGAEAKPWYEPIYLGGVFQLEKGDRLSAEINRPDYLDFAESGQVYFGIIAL
Assay: TNF-Induced HEK-Blue Assay
Assay type: cell-based
[1] = HEK-Blue-CD40L cells, NF-kB-driven secreted alkaline phosphatase reporter, TNFα 0.5 ng/ml, 18 h, read-out: TNF induced HEK-Blue assay IC50 value

Structure (SMILES)	IC50	IC50 [1]
CC[C@H](C)[C@@H]1NC(=O)[C@@H]2CCCN2C(=O)[C@H]([C@@H](C)CC)NC(=O)[C@@H](CCCNC(=N)N)NC(=O)[C@H](CC(=O)O)NC(=O)[C@H](Cc2ccccc2)NC(=O)CN(C)C(=O)[C@H](Cc2ccc(-c3ccc(NC(=O)c4nn(CC(=O)O)c5ccccc45)cc3)cc2)NC(=O)[C@H](Cc2ccc(-c3ccc(C(=O)O)cc3)cc2)NC(=O)[C@H](C(C)(C)C)NC(=O)CSC[C@@H](C(=O)NCC(N)=O)NC(=O)[C@H](CC(C)C)NC(=O)[C@H](Cc2cnc[nH]2)NC1=O [Example 359] ({CH2CO}-[Tle][Bip(4'-COOH)][Bip(4'-NH)](Indazole3carbonyl(1-CH2COOH))[Sar]FD[dR]IPIHLCG-NH2; thioether N-13)	< 50 nM	–
CC[C@H](C)[C@@H]1NC(=O)[C@@H](CCCNC(=N)N)NC(=O)[C@H](CC(=O)O)NC(=O)[C@H](Cc2cnc[nH]2)NC(=O)CN(C)C(=O)[C@H](Cc2ccc(-c3ccc(NC(=O)c4nn(CC(=O)O)c5ccccc45)cc3)cc2)NC(=O)[C@H](Cc2ccc(-c3ccc(C(=O)O)cc3)cc2)NC(=O)[C@H](CC2CCCCC2)NC(=O)CSC[C@@H](C(=O)NCC(N)=O)NC(=O)[C@H](CC(C)C)NC(=O)[C@H](Cc2cnc[nH]2)NC(=O)[C@H](C(C)C)NC(=O)[C@@H]2c3ccccc3CCN2C1=O [Example 360] ({CH2CO}-[Cha][Bip(4'-COOH)][Bip(4'-NH)](Indazole3carbonyl(1-CH2COOH))[Sar]HD[dR]I[Tiq1c(1S)]VHLCG-NH2; thioether N-13)	< 50 nM	–
CC[C@H](C)[C@@H]1NC(=O)[C@@H](CCCNC(=N)N)NC(=O)[C@H](CC(=O)O)NC(=O)[C@H](Cc2cnc[nH]2)NC(=O)CN(C)C(=O)[C@H](Cc2ccc(-c3ccc(NC(=O)c4nn(CC(=O)O)c5ccccc45)cc3)cc2)NC(=O)[C@H](Cc2ccc(-c3ccc(C(=O)O)cc3)cc2)NC(=O)[C@H](CC2CCCCC2)NC(=O)CSC[C@@H](C(=O)NCC(N)=O)NC(=O)[C@H](CC(C)C)NC(=O)[C@H](Cc2cnc[nH]2)NC(=O)[C@H](C(C)C)NC(=O)[C@@H]2Cc3ccccc3CN2C1=O [Example 361] ({CH2CO}-[Cha][Bip(4'-COOH)][Bip(4'-NH)](Indazole3carbonyl(1-CH2COOH))[Sar]HD[dR]I[Tic]VHLCG-NH2; thioether N-13)	< 50 nM	–
CC(C)C[C@@H]1NC(=O)[C@H](Cc2ccccn2)NC(=O)[C@H](C(C)C)NC(=O)[C@@H]2CCCN2C(=O)[C@H](C(C)C)NC(=O)[C@@H](CCCNC(=N)N)NC(=O)[C@H](CC(=O)O)NC(=O)[C@H](Cc2ccc(O)cc2)NC(=O)CN(C)C(=O)[C@H](Cc2ccc(-c3ccc(NC(=O)c4nn(CC(=O)O)c5ccccc45)cc3)cc2)NC(=O)[C@H](Cc2ccc(-c3ccc(C(=O)O)cc3)cc2)NC(=O)[C@H](CC2CCCCC2)NC(=O)CSC[C@@H](C(=O)NCC(N)=O)NC1=O [Example 362] ({CH2CO}-[Cha][Bip(4'-COOH)][Bip(4'-NH)](Indazole3carbonyl(1-CH2COOH))[Sar]YD[dR]VPV[2Pal]LCG-NH2; thioether N-13)	< 50 nM	–
CC(C)C[C@@H]1NC(=O)[C@H](Cc2ccc(O)cc2)NC(=O)[C@H](C(C)C)NC(=O)[C@@H]2CCCN2C(=O)[C@H](C(C)C)NC(=O)[C@@H](CCCNC(=N)N)NC(=O)[C@H](CC(=O)O)NC(=O)[C@@H]2CCCN2C(=O)CN(C)C(=O)[C@H](Cc2ccc(-c3ccc(NC(=O)c4nn(CC(=O)O)c5ccccc45)cc3)cc2)NC(=O)[C@H](Cc2ccc(-c3ccc(C(=O)O)cc3)cc2)NC(=O)[C@H](CC2CCCCC2)NC(=O)CSC[C@@H](C(=O)NCC(N)=O)NC1=O [Example 363] ({CH2CO}-[Cha][Bip(4'-COOH)][Bip(4'-NH)](Indazole3carbonyl(1-CH2COOH))[Sar]PD[dR]VPVYLCG-NH2; thioether N-13)	< 50 nM	–
CC[C@H](C)[C@@H]1NC(=O)[C@@H](CCCNC(=N)N)NC(=O)[C@H](CC(=O)O)NC(=O)[C@H](Cc2cnc[nH]2)NC(=O)CN(C)C(=O)[C@H](Cc2ccc(-c3ccc(NC(=O)c4nn(CC(=O)O)c5ccccc45)cc3)cc2)NC(=O)[C@H](Cc2ccc(-c3ccccc3)cc2)NC(=O)[C@H](CC2CCCCC2)NC(=O)CSC[C@@H](C(=O)NCC(N)=O)NC(=O)[C@H](CC(C)C)NC(=O)[C@H](Cc2cnc[nH]2)NC(=O)[C@H](C(C)C)NC(=O)[C@@H]2CCCN2C1=O [Example 364] ({CH2CO}-[Cha][Bip][Bip(4'-NH)](Indazole3carbonyl(1-CH2COOH))[Sar]HD[dR]IPVHLCG-NH2; thioether N-13)	< 50 nM	–
CC(C)C[C@@H]1NC(=O)[C@H](CCCNC(=N)N)NC(=O)[C@H](C(C)C)NC(=O)[C@@H]2CCCN2C(=O)[C@H](C(C)C)NC(=O)[C@@H](CCCNC(=N)NCCc2ccccc2)NC(=O)[C@H](CC(=O)O)NC(=O)[C@@H]2CCCN2C(=O)CN(C)C(=O)[C@H](Cc2ccc(-c3ccc(NC(=O)c4nn(CC(=O)O)c5ccccc45)cc3)cc2)NC(=O)[C@H](Cc2ccc(-c3ccccc3)cc2)NC(=O)[C@H](CN2CCOCC2)NC(=O)CSC[C@@H](C(=O)NCC(N)=O)NC1=O [Example 365] ({CH2CO}-[Ala(morpholin-4-yl)][Bip][Bip(4'-NH)](Indazole3carbonyl(1-CH2COOH))[Sar]PD[X51]VPVRLCG-NH2; thioether N-13)	< 50 nM	–
CC(C)C[C@@H]1NC(=O)[C@H](CCCNC(=N)N)NC(=O)[C@H](C(C)C)NC(=O)[C@@H]2CCCN2C(=O)[C@H](C(C)C)NC(=O)[C@@H](CCCNC(=N)NCCc2cccc(O)c2)NC(=O)[C@H](CC(=O)O)NC(=O)[C@@H]2CCCN2C(=O)CN(C)C(=O)[C@H](Cc2ccc(-c3ccc(NC(=O)c4nn(CC(=O)O)c5ccccc45)cc3)cc2)NC(=O)[C@H](Cc2ccc(-c3ccccc3)cc2)NC(=O)[C@H](CN2CCOCC2)NC(=O)CSC[C@@H](C(=O)NCC(N)=O)NC1=O [Example 366] ({CH2CO}-[Ala(morpholin-4-yl)][Bip][Bip(4'-NH)](Indazole3carbonyl(1-CH2COOH))[Sar]PD[X63]VPVRLCG-NH2; thioether N-13)	< 50 nM	–
CC[C@H](C)[C@@H]1NC(=O)[C@@H]2CCCN2C(=O)[C@H]([C@@H](C)CC)NC(=O)[C@@H](CCCNC(=N)N)NC(=O)[C@H](CC(=O)O)NC(=O)[C@H](Cc2ccccn2)NC(=O)CN(C)C(=O)[C@H](Cc2ccc(-c3ccc(NC(=O)c4ccccc4)cc3)cc2)NC(=O)[C@H](Cc2ccc(-c3ccccc3)cc2)NC(=O)[C@H](C(C)(C)C)NC(=O)CSC[C@@H](C(=O)NCC(N)=O)NC(=O)[C@H](CC(C)C)NC(=O)[C@H](Cc2cccc(C(N)=O)c2)NC1=O [Example 367] ({CH2CO}-[Tle][Bip][Bip(4'-NHBz)][Sar][2Pal]D[dR]IPI[Phe(3-CONH2)]LCG-NH2; thioether N-13)	< 50 nM	–
CC[C@H](C)[C@@H]1NC(=O)[C@@H]2CCCN2C(=O)[C@H]([C@@H](C)CC)NC(=O)[C@@H](CCCNC(=N)N)NC(=O)[C@H](CC(=O)O)NC(=O)[C@H](Cc2ccccn2)NC(=O)CN(C)C(=O)[C@H](Cc2ccc(-c3ccc(NC(=O)c4cccc(C(=O)O)c4)cc3)cc2)NC(=O)[C@H](Cc2ccc(-c3ccccc3)cc2)NC(=O)[C@H](C(C)(C)C)NC(=O)CSC[C@@H](C(=O)NCC(N)=O)NC(=O)[C@H](CC(C)C)NC(=O)[C@H](Cc2cccc(C(N)=O)c2)NC1=O [Example 368] ({CH2CO}-[Tle][Bip][Bip(4'-(3-HOOC-benzamido))][Sar][2Pal]D[dR]IPI[Phe(3-CONH2)]LCG-NH2; thioether N-13)	–	< 50 nM
CC(C)C[C@@H]1NC(=O)[C@H](Cc2ccc(O)cc2)NC(=O)[C@H](C(C)C)NC(=O)[C@@H]2Cc3ccccc3CN2C(=O)[C@H](C(C)C)NC(=O)[C@@H](CCCNC(=N)N)NC(=O)[C@H](CC(=O)O)NC(=O)[C@@H]2CCCN2C(=O)CN(C)C(=O)[C@H](Cc2ccc(-c3ccc(NC(=O)c4cccc(OCC(=O)O)c4)cc3)cc2)NC(=O)[C@H](Cc2ccc(-c3ccc(C(=O)O)cc3)cc2)NC(=O)[C@H](CC2CCCCC2)NC(=O)CSC[C@@H](C(=O)NCC(N)=O)NC1=O [Example 369] ({CH2CO}-[Cha][Bip(4'-COOH)][Bip(4'-NH)](Benzoyl(3-OCH2COOH))[Sar]PD[dR]V[Tic]VYLCG-NH2; thioether N-13)	–	50 to 200 nM
CC[C@H](C)[C@@H]1NC(=O)[C@@H](CCCNC(=N)N)NC(=O)[C@H](CC(=O)O)NC(=O)[C@H](Cc2cnc[nH]2)NC(=O)CN(C)C(=O)[C@H](Cc2ccc(-c3ccc(NC(=O)c4ccccc4)cc3)cc2)NC(=O)[C@H](Cc2ccc(-c3ccc(C(=O)O)cc3)cc2)NC(=O)[C@H](CC2CCCCC2)NC(=O)CSC[C@@H](C(=O)NCC(N)=O)NC(=O)[C@H](CC(C)C)NC(=O)[C@H](Cc2cnc[nH]2)NC(=O)[C@H](C(C)C)NC(=O)[C@@H]2Cc3ccccc3CN2C1=O [Example 370] ({CH2CO}-[Cha][Bip(4'-COOH)][Bip(4'-NHBz)][Sar]HD[dR]I[Tic]VHLCG-NH2; thioether N-13)	< 50 nM	–
CC[C@H](C)[C@@H]1NC(=O)[C@@H](CCCNC(=N)N)NC(=O)[C@H](CC(=O)O)NC(=O)[C@H](Cc2cnc[nH]2)NC(=O)CN(C)C(=O)[C@H](Cc2ccc(-c3ccc(NC(=O)c4cccc(C(=O)O)c4)cc3)cc2)NC(=O)[C@H](Cc2ccc(-c3ccc(C(=O)O)cc3)cc2)NC(=O)[C@H](CC2CCCCC2)NC(=O)CSC[C@@H](C(=O)NCC(N)=O)NC(=O)[C@H](CC(C)C)NC(=O)[C@H](Cc2cnc[nH]2)NC(=O)[C@H](C(C)C)NC(=O)[C@@H]2Cc3ccccc3CN2C1=O [Example 371] ({CH2CO}-[Cha][Bip(4'-COOH)][Bip(4'-(3-HOOC-benzamido))][Sar]HD[dR]I[Tic]VHLCG-NH2; thioether N-13)	–	< 50 nM
CC[C@H](C)[C@@H]1NC(=O)[C@@H](CCCNC(=N)N)NC(=O)[C@H](CC(=O)O)NC(=O)[C@H](Cc2cnc[nH]2)NC(=O)CN(C)C(=O)[C@H](Cc2ccc(-c3ccc(NC(=O)c4cccc(OCC(=O)O)c4)cc3)cc2)NC(=O)[C@H](Cc2ccc(-c3ccc(C(=O)O)cc3)cc2)NC(=O)[C@H](CC2CCCCC2)NC(=O)CSC[C@@H](C(=O)NCC(N)=O)NC(=O)[C@H](CC(C)C)NC(=O)[C@H](Cc2cnc[nH]2)NC(=O)[C@H](C(C)C)NC(=O)[C@@H]2Cc3ccccc3CN2C1=O [Example 372] ({CH2CO}-[Cha][Bip(4'-COOH)][Bip(4'-NH)](Benzoyl(3-OCH2COOH))[Sar]HD[dR]I[Tic]VHLCG-NH2; thioether N-13)	–	< 50 nM
